Source: US20250263436A1, “BROAD-SPECTRUM ANTIVIRAL DRUG FOR ENTEROVIRUS, AND APPLICATION” (WUHAN INSTITUTE OF VIROLOGY, CHINESE ACADEMY OF SCIENCES, priority 2020, published 2025)
“And” between values parts separate entries of the source, which are not always exact repeats. Equal entries are not always repeated. “Also recorded” adds a separate entry of the source.

Tests used:
Echo 11 = assay: Inhibition of Echo 11 in RD cells (viral RNA, qRT-PCR); assay type: cell-based; settings: inhibiting Echo 11 in RD cells
Description: (§1) (1) RD cells were plated in a 24-well plate.
(2) When the cells grew to a confluence of 70%-80%, the DMEM medium containing 10% serum was replaced with a DMEM medium containing 2% serum (the DMEM medium containing 2% serum was added in each well at an amount of 0.5 mL), and 5 μL of Echo 11 virus of 1×10^6 PFU/mL was added to each well.
(§2) (3) After 1 h, the polypeptides with final concentrations of 0.3125 μM, 0.625 μM, 1.25 μM, 2.5 μM, and 5 μM were added respectively. The group without polypeptide added was used as a control.
(4) The samples were collected 24 h after the infection of Echo 11 virus, and RNA was extracted with the total RNA extraction kit.
(§3) (5) The supernatant was discarded, then 350 μL of TRK lysate was added to each well, and the plate was put on a shaker for 5 min.
(§4) (6) 350 μL of 70% ethanol (DEPC) was added to each well, and then the plate was put on a shaker for 5 min.
(§5) (7) The solution in each well was transferred to a RNA extraction column for 1 min of centrifugation at 12000 g.
(§6) (8) The solution obtained in the recovery tube was reloaded on the column again for 1 min of centrifugation at 12000 g.
(§7) (9) RNA washing buffer 1 was added in the column for 30 s of centrifugation at 12000 g. […]
(§8) (14) 2 μL of RNA sample was subjected to a fluorescence quantitative experiment using the one step qRT-PCR kit. […]

RD cells = assay: Toxicity assay in RD cells (CCK-8); assay type: cell-based; settings: RD cells, 24 h
Description: (§9) (1) Different cells were plated in a 96-well plate at 100 μL per well.
(§10) (2) When the cells grew to a confluence of 70%-80%, the DMEM medium containing 10% serum was replaced with a DMEM medium containing 2% serum, and a certain concentration gradient of polypeptide RQ was added, so that the final concentrations of the polypeptide in the wells were 0.073242 μM, 0.146484 μM, 0.292969 μM, 0.585938 μM, 1.171875 μM, 2.34375 μM, 4.6875 μM, 9.375 μM, 18.75 μM, 37.5 μM, 75 μM, 150 μM, and 300 μM, respectively.
(§11) (3) The samples were collected 24 h after the addition of the polypeptide, and then 10 μL of live cell detection reagent CCK-8 was added to each well and mixed well.
(§12) (4) The plate was placed at 37° C. for 2 h.
(§13) (5) The absorbance value at OD450 was detected by a microplate reader.
(§14) (1) RD cells were plated in a 96-well plate at 100 μL per well.
(§15) (2) When the cells grew to a confluence of 70%-80%, the DMEM medium containing 10% serum was replaced with a DMEM medium containing 2% serum, and B-RQ was added so that the final concentrations in the wells were 0.46 μM, 2.34 μM, 4.68 μM, 9.37 μM, 18.75 μM, 37.5 μM, 75 μM, and 150 μM.

[1] = Toxicity assay in RD cells (CCK-8); assay type: cell-based; settings: human
Description: as §9, §10, §11, §12, §13, §14, §15

CVB3 = assay: Inhibition of CVB3 in RD cells (viral RNA, qRT-PCR); assay type: cell-based; settings: inhibiting CVB3 in RD cells
Description: as §1
(2) When the cells grew to a confluence of 70%-80%, the DMEM medium containing 10% serum was replaced with a DMEM medium containing 2% serum (the DMEM medium containing 2% serum was added in each well at an amount of 0.5 mL), and 5 μL of CVB3 virus of 1×10^6 PFU/mL was added to each well.
as §2
(4) The samples were collected 24 h after the infection of CVB3 virus, and RNA was extracted with the total RNA extraction kit.
as §3, §4, §5, §6, §7, §8

[2] = test system: cell-penetrating peptide YGRKKRRQRRR (TAT)

CC(C)C[C@H](NC(=O)[C@H](C)NC(=O)[C@H](CCC(=O)O)NC(=O)[C@H](CC(C)C)NC(=O)[C@@H](NC(=O)[C@H](C)NC(=O)CNC(=O)[C@@H](NC(=O)[C@H](CO)NC(=O)[C@H](Cc1c[nH]cn1)NC(=O)[C@H](CCCNC(=N)N)NC(=O)[C@H](Cc1c[nH]cn1)NC(=O)[C@H](CC(N)=O)NC(=O)[C@H](Cc1ccc(O)cc1)NC(=O)[C@H](CCC(=O)O)NC(=O)[C@H](CCCNC(=N)N)NC(=O)CNC(=O)[C@H](CO)NC(=O)CNC(=O)[C@H](CCCNC(=N)N)NC(=O)[C@H](CCCNC(=N)N)NC(=O)[C@H](CCCNC(=N)N)NC(=O)[C@H](CCC(N)=O)NC(=O)[C@H](CCCNC(=N)N)NC(=O)[C@H](CCCNC(=N)N)NC(=O)[C@H](CCCCN)NC(=O)[C@H](CCCCN)NC(=O)[C@H](CCCNC(=N)N)NC(=O)CNC(=O)[C@@H](N)Cc1ccc(O)cc1)C(C)C)[C@@H](C)O)C(=O)N[C@@H](Cc1ccccc1)C(=O)N[C@@H](CCC(N)=O)C(=O)O [B-RQ]
IC50 (Echo 11): 380 nM
Cell viability (%) (RD cells; B-RQ 0.46875 μM): 99.47% and 98.27%
Cell viability (%) (RD cells; B-RQ 2.34375 μM): 97.93% and 97.19%
Cell viability (%) (RD cells; B-RQ 4.6875 μM): 100.7775% and 96.97%
Cell viability (%) (RD cells; B-RQ 9.375 μM): 96.62% and 96.17%
Cell viability (%) (RD cells; B-RQ 18.75 μM): 97.36%
Cell viability (%) (RD cells; B-RQ 37.5 μM): 99.64% and 99.24%
Cell viability (%) (RD cells; B-RQ 75 μM): 95.66%
Cell viability (%) (RD cells; B-RQ 150 μM): 95.94% and 95.32%
viability at 24 h, 0.46875 µM ([1]; RD cells, B-RQ 0.46875 μM, 24 h, read-out: Cell viability (%)): 99%
viability at 24 h, 2.34375 µM ([1]; RD cells, B-RQ 2.34375 μM, 24 h, read-out: Cell viability (%)): 99.1%
viability at 24 h, 4.6875 µM ([1]; RD cells, B-RQ 4.6875 μM, 24 h, read-out: Cell viability (%)): 98.7%
viability at 24 h, 9.375 µM ([1]; RD cells, B-RQ 9.375 μM, 24 h, read-out: Cell viability (%)): 99.3%
viability at 24 h, 18.75 µM ([1]; RD cells, B-RQ 18.75 μM, 24 h, read-out: Cell viability (%)): 97.8%
viability at 24 h, 37.5 µM ([1]; RD cells, B-RQ 37.5 μM, 24 h, read-out: Cell viability (%)): 99.4%
viability at 24 h, 75 µM ([1]; RD cells, B-RQ 75 μM, 24 h, read-out: Cell viability (%)): 96%
viability at 24 h, 150 µM ([1]; RD cells, B-RQ 150 μM, 24 h, read-out: Cell viability (%)): 95.5%
CC50 at 24 h ([1]; Table 1 (RD cells)): > 75000 nM
IC50 (CVB3): 2290 nM

MBP-EV71 2C protein
helicase activity (unwinding of HEX-labeled dsRNA substrate, gel electrophoresis) [2]: the control TAT did not affect the helicase activity of 2C (lane 4)
helicase activity (unwinding of HEX-labeled dsRNA substrate, gel electrophoresis) (polypeptide RQ): the addition of RQ inhibited the helicase activity of 2C (lane 5); also recorded: RQ inhibited the helicase activity of EV71 2C in a dose-dependent manner
